The subject of one experiment is guinea pig ileum. Kind of experiment: guinea pig ileum test (inhibition of voltage induced contractions). In kind it is cell-based. Particulars: read-out: I.D.50 in the guinea pig ileum test.
Experiment [1] has as its system opioid receptors in caudate nuclei homogenate S4e. Briefly: affinity labeling of opiate receptor sites by irradiation of azido compounds, caudate nuclei homogenate S4e. In kind it is binding, bovine. Particulars: normorphine hydrochloride added before the azide and irradiation.

Where two headings read alike, the source gives them in different places.

As for `Oc1ccc2c3c1O[C@H]1[C@@H](O)C=C[C@H]4[C@@H](C2)NCC[C@@]341` [normorphine], the IC50 in the experiment on guinea pig ileum (Cavia porcellus) is 0.12 µM. Also, in experiment [1], the “effect on the deactivation of the opioid receptors by the azide compounds” value is listed as “inhibit the deactivation of the opioid receptors”. As for (D-ala^ 2)met-enkephalinamide, in the experiment on guinea pig ileum, the IC50 came to 0.012 µM.

The record behind these values is patent US4261883A (priority 1979, dated 1981).
